Results as given in patent US20130164387A9, “NOVEL MANNOPYRANOSIDE DERIVATIVES WITH ANTICANCER ACTIVITY” (Centre National De La Recherche Scientifique, priority 2009, published 2013).

Tested on: B16 melanoma
Test: Tumor growth and survival of mice which have a B16 melanoma
Format: in vivo, mouse
Settings: for inhibition of tumor growth: mice with subcutaneous B16 melanoma, dose of 300 mg/kg
Method: A melanoma is induced in a mouse by subcutaneous injection of tumor cells (B16 cells).
The tumor develops within 10 days in the subcutaneous position (ventral face of the thigh). The size of the tumor is measured with a caliper rule and its volume is estimated according to the formula V=L×w×w, in which L represents the length and w represents the width. Various compounds of the invention were administered to mice having received syngenic melanoma cells (B16) at a dose of 300 mg/kg.

Row | Substance | inhibition of tumor growth [%] | mortality in treated mouse group (after 18 days of treatment, 300 mg/kg, nontreated mouse group 40% mortality)
1 | METHYL 6-O-HYDROGENOPHOSPHONATE-α-D-MANNO-PYRANOSIDE [compound 4e] | 40 | –
2 | 6-(METHYL 6-DEOXY-α-D-MANNOPYRANOSIDE) BORONIC ACID [compound 7f] | 65 | no mortality
